In US4232148A, “6-Deoxyneamines” (The Upjohn Company, priority 1979, dated 1980):
Converted amounts (≈) assume the structure as drawn. Where two headings read alike, the source gives them in different places.

Tested on: S. schottmuelleri UC 126
Assay: standard microplate test in BHI Agar, MIC
Assay type: cell-based
Conditions: 37°, 20 hours
Experimental: The compounds VII, XI, XVβ, XVα and XVI were tested in a standard microplate test in BHI (Brain Heart Infusion) Agar at a concentration of 1 mg./ml. and dilutions thereof at 37° incubation temperature. The end points are read at 20 hours. BHI Agar is supplied by Difco Laboratories, Detroit, Mich., U.S.A. and has the following compositions:
Calf brains, infusion from: 200 gm.
Beef heart, infusion from: 250 gm.
Bacto Proteose-peptone, Difco: 10 gm.
Bacto-Dextrose, Difco: 1 gm.
Disodium phosphate: 2.5 gm.

## NC[C@H]1O[C@H](O[C@H]2[C@H](O)[C@@H](O)[C@H](N)C[C@@H]2N)[C@H](N)[C@@H](O)[C@@H]1O [Neamine]
read-out: Minimal Inhibitory Concentration
  MIC: 15.6 µg/mL (≈ 48.4 µM)
read-out: Minimum Inhibitory Concentration
  MIC: 31.2 µg/mL (≈ 96.8 µM)
